Laboratory results: patent US20100041089A1, “IMPROVED METHOD FOR DETECTING CHEMICAL […]” (priority 2006, published 2010)

System: yeast genes (expressed mRNA)
Experiment: DNA chip measurement of expressed mRNA of yeast genes after culture with a toxic chemical substance
Format: cell-based, Saccharomyces cerevisiae S288C
Description: Yeast (Saccharomyces cerevisiae S288C (a SUC2mal mel gap2 CUP1)) were cultured at 25° C. on YPD medium (yeast extract 1%, polypeptone 2%, glucose 2%). One of toxic chemical substances was added to the cell at logarithmic growth phase, and the cell was further cultured for two hours. Cell was cultured without any chemical substance in the same condition, and was used as a control. Concentrations of the chemical substances were defined to inhibit the growth of the yeast but not lead to death.
After the completion of cultivation, the culture was centrifuged to collect the cells. To the cells, sodium acetate buffer (50 mM sodium acetate, 10 mM EDTA, 1% SDS) was added, and the mixture was shaken at 65° C. for five minutes, followed by returning to room temperature, and obtaining the supernatant, which procedure was repeated two times. To the supernatant, ½ amount of a solution of phenol/chloroform (1:1) was added, and the mixture was centrifuged to give a supernatant, an equal amount of chloroform was added, and the mixture was centrifuged to give a supernatant. To the supernatant, an equal amount of isopropanol containing 0.3 M sodium acetate was added, and the mixture was allowed to stand at room temperature for 30 minutes, after which the mixture was centrifuged to give sediment of the whole RNAs. Seventy % ethanol was added to the sediment, and the mixture was again centrifuged to give sediment, which was then dried and dissolved in water. mRNA was isolated from the whole RNAs as followings. In view of the fact that a poly A chain is attached to the 3′ terminus of mRNA, a polynucleotide having a poly T structure which was immobilized on the surface of latex beads was used to trap the mRNA, and then the mRNA was washed and eluted with spine column (Oligotex-dT30<Super>mRNA Purification Kit, Takara). Reverse transcription of the mRNA was conducted with a reverse transcriptase (Super Script II Reverse Transcriptase; catalogue No. 18064-014, GibcoBRL) using fluorescence-labeled nucleotides to give cDNAs that were introduced with Cy3-dUTP or Cy5-dUTP during the reverse transcription.
The labeled cDNAs were dissolved in TE buffer (10 mM Tris-HCl/1 mM EDTA, pH 8.0), and the solution was dropped on the DNA chip containing the whole genes of yeast (DNA Chip Research Inc. Japan) so that the cDNAs were hybridized on the DNA chip at 65° C. for over 12 hours. The fluoresces intensity of the DNA chip was read with a scanner, and the ratio relative to the fluorescence intensity resulting from the absence of chemical substance was estimated as the following, which is shown in Tables 1 to 9.
In the Tables, “Intensity” indicated in the rightmost column is a value of the level of expressed mRNA of each gene in control cells as divided by the average level of the expressions of the whole genes. A gene of which mRNA level is lower in control, and is higher in cases of addition of chemical substance, is especially useful in the detection of toxic substances.
Here, when a ratio of an amount of mRNA expressed in the presence of the chemical substance to an amount of mRNA expressed in the absence of the chemical substance is two or more, then it is considered significant.

COc1cc(CNC(=O)CCCCC=CC(C)C)ccc1O [(12), 8-Methyl-N-vanillyl-6-nonenamide]
The level of expressed mRNA in the presence of chemical substance/The level of expressed mRNA in the absence of chemical substance (yeast gene YJL151C, cultured two hours with substance): 1.3 | The level of expressed mRNA in the presence of chemical substance/The level of expressed mRNA in the absence of chemical substance (yeast gene YJL152W, cultured two hours with substance): 1.0 | The level of expressed mRNA in the presence of chemical substance/The level of expressed mRNA in the absence of chemical substance (yeast gene YJL161W, cultured two hours with substance): 1.0 | The level of expressed mRNA in the presence of chemical substance/The level of expressed mRNA in the absence of chemical substance (yeast gene YJL165C (stress protein genes)): 0.9 | The level of expressed mRNA in the presence of chemical substance/The level of expressed mRNA in the absence of chemical substance (yeast gene YJL171C, cultured two hours with substance): 1.0 | The level of expressed mRNA in the presence of chemical substance/The level of expressed mRNA in the absence of chemical substance (yeast gene YJL186W, cultured two hours with substance): 0.6 | The level of expressed mRNA in the presence of chemical substance/The level of expressed mRNA in the absence of chemical substance (yeast gene YJR008W, cultured two hours with substance): 1.3 | The level of expressed mRNA in the presence of chemical substance/The level of expressed mRNA in the absence of chemical substance (yeast gene YJR054W, cultured two hours with substance): 0.9 | The level of expressed mRNA in the presence of chemical substance/The level of expressed mRNA in the absence of chemical substance (yeast gene YKL071W, cultured two hours with substance): 1.0 | The level of expressed mRNA in the presence of chemical substance/The level of expressed mRNA in the absence of chemical substance (yeast gene YKL086W, cultured two hours with substance): 0.6 | The level of expressed mRNA in the presence of chemical substance/The level of expressed mRNA in the absence of chemical substance (yeast gene YKL151C, cultured two hours with substance): 1.0 | The level of expressed mRNA in the presence of chemical substance/The level of expressed mRNA in the absence of chemical substance (yeast gene YKL152C, cultured for two hours with substance): 1.5 | The level of expressed mRNA in the presence of chemical substance/The level of expressed mRNA in the absence of chemical substance (yeast gene YKL153W, cultured two hours with substance): 1.1 | The level of expressed mRNA in the presence of chemical substance/The level of expressed mRNA in the absence of chemical substance (yeast gene YKL195W, cultured two hours with substance): 1.1 | The level of expressed mRNA in the presence of chemical substance/The level of expressed mRNA in the absence of chemical substance (yeast gene YKL213C, metabolism protein genes): 0.9 | The level of expressed mRNA in the presence of chemical substance/The level of expressed mRNA in the absence of chemical substance (yeast gene YKR075C, cultured two hours with substance): 2.3 | The level of expressed mRNA in the presence of chemical substance/The level of expressed mRNA in the absence of chemical substance (yeast gene YKR091W, cultured two hours with substance): 0.9 | The level of expressed mRNA in the presence of chemical substance/The level of expressed mRNA in the absence of chemical substance (yeast gene YLR008C, cultured two hours with substance): 3.5 | The level of expressed mRNA in the presence of chemical substance/The level of expressed mRNA in the absence of chemical substance (yeast gene YLR054C, cultured two hours with substance): 1.1 | The level of expressed mRNA in the presence of chemical substance/The level of expressed mRNA in the absence of chemical substance (yeast gene YLR103C, DNA repair protein genes, cultured two hours with substance): 1.6 | The level of expressed mRNA in the presence of chemical substance/The level of expressed mRNA in the absence of chemical substance (yeast gene YLR149C, cultured two hours with substance): 2.0 | The level of expressed mRNA in the presence of chemical substance/The level of expressed mRNA in the absence of chemical substance (yeast gene YLR152C, cultured two hours with substance): 1.0 | The level of expressed mRNA in the presence of chemical substance/The level of expressed mRNA in the absence of chemical substance (yeast gene YLR194C, cultured two hours with substance): 1.6 | The level of expressed mRNA in the presence of chemical substance/The level of expressed mRNA in the absence of chemical substance (yeast gene YLR273C): 0.9 | The level of expressed mRNA in the presence of chemical substance/The level of expressed mRNA in the absence of chemical substance (yeast gene YLR324W, cultured two hours with substance): 0.8 | The level of expressed mRNA in the presence of chemical substance/The level of expressed mRNA in the absence of chemical substance (yeast gene YLR345W, cultured for two hours with substance): 1.6 | The level of expressed mRNA in the presence of chemical substance/The level of expressed mRNA in the absence of chemical substance (yeast gene YLR346C, cultured two hours with substance): 4.2 | The level of expressed mRNA in the presence of chemical substance/The level of expressed mRNA in the absence of chemical substance (yeast gene YLR348C, metabolism protein genes): 0.9 | The level of expressed mRNA in the presence of chemical substance/The level of expressed mRNA in the absence of chemical substance (yeast gene YLR350W, cultured two hours with substance): 1.8 | The level of expressed mRNA in the presence of chemical substance/The level of expressed mRNA in the absence of chemical substance (yeast gene YLR387C, cultured two hours with substance): 1.1 | The level of expressed mRNA in the presence of chemical substance/The level of expressed mRNA in the absence of chemical substance (yeast gene YLR460C, cultured two hours with substance): 0.4 | The level of expressed mRNA in the presence of chemical substance/The level of expressed mRNA in the absence of chemical substance (yeast gene YML054C, cultured for two hours with substance): 1.8 | The level of expressed mRNA in the presence of chemical substance/The level of expressed mRNA in the absence of chemical substance (yeast gene YML117W, cultured two hours with substance): 0.8 | The level of expressed mRNA in the presence of chemical substance/The level of expressed mRNA in the absence of chemical substance (yeast gene YMR009W, cultured two hours with substance): 0.6 | The level of expressed mRNA in the presence of chemical substance/The level of expressed mRNA in the absence of chemical substance (yeast gene YMR067C, cultured two hours with substance): 1.1 | The level of expressed mRNA in the presence of chemical substance/The level of expressed mRNA in the absence of chemical substance (yeast gene YMR090W, cultured two hours with substance): 2.2 | The level of expressed mRNA in the presence of chemical substance/The level of expressed mRNA in the absence of chemical substance (yeast gene YMR095C, cultured two hours with substance): 0.8 | The level of expressed mRNA in the presence of chemical substance/The level of expressed mRNA in the absence of chemical substance (yeast gene YMR097C, cultured two hours with substance): 1.2 | The level of expressed mRNA in the presence of chemical substance/The level of expressed mRNA in the absence of chemical substance (yeast gene YMR102C, cultured two hours with substance): 2.4 | The level of expressed mRNA in the presence of chemical substance/The level of expressed mRNA in the absence of chemical substance (yeast gene YMR107W, cultured two hours with substance): 0.8 | The level of expressed mRNA in the presence of chemical substance/The level of expressed mRNA in the absence of chemical substance (yeast gene YMR180C, cultured two hours with substance): 1.2 | The level of expressed mRNA in the presence of chemical substance/The level of expressed mRNA in the absence of chemical substance (yeast gene YMR184W, cultured two hours with substance): 1.7 | The level of expressed mRNA in the presence of chemical substance/The level of expressed mRNA in the absence of chemical substance (yeast gene YMR191W, cultured two hours with substance): 1.8 | The level of expressed mRNA in the presence of chemical substance/The level of expressed mRNA in the absence of chemical substance (yeast gene YMR215W, cultured two hours with the chemical substance): 0.4 | The level of expressed mRNA in the presence of chemical substance/The level of expressed mRNA in the absence of chemical substance (yeast gene YMR295C, cultured two hours with substance): 1.1 | The level of expressed mRNA in the presence of chemical substance/The level of expressed mRNA in the absence of chemical substance (yeast gene YMR315W, cultured two hours with substance): 2.0 | The level of expressed mRNA in the presence of chemical substance/The level of expressed mRNA in the absence of chemical substance (yeast gene YMR316W, cultured two hours with substance): 1.9 | The level of expressed mRNA in the presence of chemical substance/The level of expressed mRNA in the absence of chemical substance (yeast gene YNL044W, cultured two hours with substance): 1.0 | The level of expressed mRNA in the presence of chemical substance/The level of expressed mRNA in the absence of chemical substance (yeast gene YNL045W, metabolism protein genes): 0.9 | The level of expressed mRNA in the presence of chemical substance/The level of expressed mRNA in the absence of chemical substance (yeast gene YNL074C, cultured two hours with substance): 0.9
